Q: For COC(=O)c1cc(-n2c(-c3ccccc3)cc3c2CCCC3)ccc1O, which melting point is on record?
A: 141 to 142 °C

Q: With CCOC(=O)COc1cccc2oc(-c3ccccc3)cc(=O)c12 as the compound, how does the melting point read?
A: 89.5 to 90.5 °C

Q: Which melting point does the source give for CSc1cn(C)c2cc(Cl)sc2c1=O here?
A: 231 to 234 °C

Q: For CC1(C)C(=O)Nc2ccc(C3=NNC(=O)CC3)cc21, which melting point is on record?
A: > 300 °C

Q: With COc1cc(OCc2ccccn2)c(C=O)cc1-c1cccs1 as the compound, how does the melting point read?
A: 93 to 94 °C

Q: With CN1CC2CN(C(=O)N3c4ccccc4NC(=O)c4c3c(Cl)cn4C)CC2C1 (stereo unspecified) as the compound, how does the melting point read?
A: > 280 °C

Q: Which melting point does the source give for O=C(O)CCC(=O)NC1CCCCC1 here?
A: 168 to 170 °C

Q: With O=C(O)Cc1ccc(Cc2nc3c(F)c(F)cc(F)c3s2)cc1 as the compound, how does the melting point read?
A: 173 to 175 °C

Q: For CCOCc1nc2c(N)nc3c(c2n1CC(C)(C)OCCS(C)(=O)=O)CCCC3, which melting point is on record?
A: 150 to 153 °C

Q: With CCOP(=O)(COCCOn1cnc2c(N)ncnc21)OCC as the compound, how does the melting point read?
A: 74 to 76 °C

Q: For N#Cc1c(N2CCN(C(=O)c3cccs3)CC2)c2cccnc2[nH]c1=O, which melting point is on record?
A: 320 °C

Q: For Nc1cc(N2CCN(C(=O)COc3cccc4ccccc34)CC2)nc(N)n1, which melting point is on record?
A: 205 to 210 °C

Q: Which melting point does the source give for COc1cc(Br)c(I)cc1OC here?
A: 98 to 100 °C

Q: With CCc1ccc(OCc2cccc(NC(=O)CCC(=O)OC)c2)cc1OC as the compound, how does the melting point read?
A: 69 to 70 °C

Q: Which melting point does the source give for COC(=O)c1ccc(/C=C\[C@@H]2C[C@@H](NS(=O)(=O)c3ccc(Cl)cc3)CN2)cc1 here?
A: 189 to 190 °C

Q: Which melting point does the source give for CS(=O)(=O)c1cc(C(=O)O)ccc1Oc1ccc(C(O)CSc2ccccn2)cc1 (stereo unspecified) here?
A: 169 to 174 °C

Q: Which melting point does the source give for CC(C)(C(=O)O)c1ccc(O[Si](C)(C)C(C)(C)C)cc1 here?
A: 78 to 80 °C

Q: With CON(CCCCn1c(C)nc2c(N)nc3ccccc3c21)C(N)=O as the compound, how does the melting point read?
A: 158 to 160 °C

Q: With O=C(O)Cc1ccc2c(c1)C(=O)C(=Cc1ccccc1)C2 as the compound, how does the melting point read?
A: 202 to 204 °C

Q: Which melting point does the source give for Cc1cc(C)nc(C(=O)c2[nH]c3ccc(Cl)cc3c2CC(=O)O)c1 here?
A: 233 to 235 °C

Q: For CC(=O)c1ccc(Nc2c3ccccc3nc3occ(Cl)c23)cc1, which melting point is on record?
A: 174 to 176 °C

Q: For CC(C)(C)OC(=O)N1CCC(NC(=O)c2ccc(-n3cc4ccccc4n3)cc2)CC1, which melting point is on record?
A: 202 to 204 °C

Q: For O=C(O)Cc1onc(O)c1Br, which melting point is on record?
A: 167 °C

Q: Which melting point does the source give for CN1C(=O)C2(COc3cc4c(cc32)OCCO4)c2c(NS(C)(=O)=O)cccc21 (stereo unspecified) here?
A: 184 to 186 °C

Q: For CC(C)n1nc(-c2sc(C(=O)NCc3ccccn3)nc2-c2cccc(Cl)c2)ccc1=O, which melting point is on record?
A: 168 to 170 °C

Q: Which melting point does the source give for COc1ccc(C2(c3ccc(OC)cc3)C(Cl)(Cl)C23CCCCC3)cc1 here?
A: 121 to 122 °C

Q: Which melting point does the source give for CCN(Cc1cc(Br)ccc1OCc1ccccc1)c1ccc(-c2nnn[nH]2)cc1 here?
A: 206 to 208 °C

Q: For Nc1cc(F)nc(F)c1F, which melting point is on record?
A: 94 to 96 °C

Q: Which melting point does the source give for C=C(C)c1csc(SC)c1 here?
A: 71 to 73 °C

Q: Which melting point does the source give for COc1cc(-c2nc3ccccc3n2Cc2ccc(Cl)c(Cl)c2)cc(OC)c1OC here?
A: 145 °C

Q: With Cc1ccc2nc(C)c(CCN3CCC(c4noc5cc(F)ccc45)CC3)c(=O)n2c1 as the compound, how does the melting point read?
A: 187 °C

Q: For Clc1ccc(Cl)c(-c2nnnn2Cc2cccnc2)c1, which melting point is on record?
A: 166 to 168 °C

Q: With Cn1cc(C(=O)C(=O)NC2=CC(=O)OC2)c2ccccc21 as the compound, how does the melting point read?
A: 262 to 264 °C

Q: Which melting point does the source give for CCCNON=C(C)C1=CCCN(C)C1 here?
A: 78 to 79 °C

Q: For COc1ccc(-n2c(=O)c(Cl)nc3cccnc32)cc1, which melting point is on record?
A: > 300 °C

Q: Which melting point does the source give for O=C(c1ccc(F)cc1)C1CCN(CCCn2c(=O)[nH]c3cc(C(F)(F)F)ccc32)CC1 here?
A: 160 °C

Q: Which melting point does the source give for C[C@H](c1ccccc1)n1c(O)nc2c(Cl)nc3ccccc3c21 here?
A: 227 to 229 °C

Q: Which melting point does the source give for CNCc1cc(OC)c(-c2ccc(C[C@H](NC(=O)c3c(Cl)cccc3Cl)C(=O)O)cc2)c(OC)c1 here?
A: 274 °C

Q: With Cc1nc(N)c2nc(C)n(Cc3cc(-c4ccc(F)cc4)no3)c2c1C as the compound, how does the melting point read?
A: 278 to 279 °C

Q: For Cc1onc(-c2ccccc2)c1C(=O)N[C@@H]1N=C(c2ccccc2)c2ccccc2N(C)C1=O, which melting point is on record?
A: 123 to 126 °C

Q: For O=C(Cc1ccccc1)c1cccc(OCc2ccccc2)c1, which melting point is on record?
A: 58 to 60 °C

Reference: a melting point compilation (Tetko et al.; mined from patent text by program, amines drawn as free bases though some values may be those of a salt)
